The nature of data set [1]: USP #2 paddle dissolution test: release of active in pH 1.2 or pH 6.8 buffer. The note with it: for total release of active (in words): CMCAB tablets (Formulations E17, E18, E20), pH 1.2. Format: physicochemical. The procedure:
The dissolution tests were done using a USP #2 calibrated apparatus Varian VK 7000 with Teflon paddles. The pills were added to 900 ml of USP 1.2 pH buffer or to 900 ml of USP pH 6.8 buffer. The buffer solutions had each been degassed at 41° C. through a 0.45 micron hydrophilic polypropylene filter and held under vacuum for an additional 5 minutes. After the solutions were added to the dissolution vessels, the solutions were held at 37.3° C. in the water bath for 30 minutes to achieve constant temperature, prior to the addition of the tablets. The tablets were weighted down with a Varian 3-pronged capsule weight. At the beginning of each run, the tablets were allowed to sink to the bottom of the 1000 ml vessel, the stirrers were turned on at 50 rpm and samples taken as a function of time, using polypropylene syringes. The samples were filtered through 0.45 micron filters and immediately analyzed for the amount of aspirin in the solution. The wavelength for measuring the amount of aspirin (salicylic acid acetate) at pH 1.2 was 279 nm, which was the wavelength for equivalent molar absorptivities for both salicylic acid and aspirin using a Varian UV-VIS Spectrophotometer and quartz absorption cells. Similarly, the wavelength used to measure the concentration of the aspirin in pH 6.8 buffer was 267 nm, which was the wavelength where the molar absorptivity for salicylic acid and aspirin are equivalent at pH 6.8. This allowed accurate measurement of the release rate profile without having to worry about the degradation of the aspirin to salicylic acid with time. Each set of experiments had appropriate standards for reference for quantitative analysis. In the cases where the samples contained Vitamin E-TPGS, HPLC with UV detection was done to analyze for aspirin and salicylic acid.
6.0069 g CMCAB was mixed with 1.4937 g Fexofenadine HCl and 10.7693 g ethanol. The clear solution was allowed to dry into a clear film. The amorphous compatible film was then ground in a SPEX™ liquid nitrogen Freezer Mill for 6 minutes at 75% maximum speed. Torpac Inc. #2 Gelatin capsules were filled with the powdered polymer blend and tested using a Varian VK7000 USP II dissolution device at pH 1.2 and pH 6.8. The dissolution results are shown in FIG. 24, which is a plot of fexofenadine released from CMCAB solid dispersion (y-axis) versus time (minutes, x-axis) for Formulation E24 in Example 4. […] By varying the way the carboxyalkyl cellulose ester is mixed with the active, the rate of release can be varied so that one can achieve near zero order release of the active over a long period of time.

The conditions of data set [2]: cited from earlier work.

SMILES strings stand for the structures.

As to `OC(Cn1cncn1)(Cn1cncn1)c1ccc(F)cc1F` [fluconazole], the “pH dependence of release” value in data set [1] (CMCAB tablet (Formulation E22), pH 1.2 versus pH 6.8) is “little pH dependence”. Besides, the “duration of near zero order release” value in data set [1] (CMCAB tablet at 25% active (Formulation E22)) is listed as “up to 500 minutes”. In data set [2], the water solubility entry was “highly water soluble”.
On to `CC(C)Cc1ccc(C(C)C(=O)O)cc1` (stereo not drawn) [ibuprofen], for which the “total release of active (in words)” value in data set [1] was “low total release”.
In the case of `Cc1nnc(NS(=O)(=O)c2ccc(N)cc2)s1` [sulfamethizole], the “total release of active (in words)” value in data set [1] is reported as “low total release”.
Still for that read-out and setting: then `COc1cc(Cc2cnc(N)nc2N)cc(OC)c1OC` [trimethoprim], with “low total release”.

These data come from US20070104787A1, “Carboxyalkyl cellulose esters for sustained delivery of pharmaceutically active substances” (priority 2005, published 2007).
